Laboratory results from PubChem BioAssay AID1963422 (Molecular Pharmacology Branch, DTP, NCI, 2024).
Values joined by “and” are separate entries in the source; they are usually repeats but may differ in a detail not shown here. Identical values can stand only once. Values belong to the compound of their own block, whether it stands above or below them.

Test system: 463943-066-T-J2-PDC complex spheroid growth
Assay: Anticancer human tumor 463943-066-T-J2-PDC patient-derived colon adenocarcinoma cell line growth inhibition [Asc]
Settings: for viability, T/C: stronger effect = lower value
Experimental: Multicellular complex tumor spheroid response to apoptosis pathway targeting inhibitors Alrizomadlin, Pelcitoclax, and Dasminapant in combination with a variety of drugs and investigational agents in selected tumor cell lines
The MDM2 inhibitor alrizomadlin, the Bcl-2/Bcl-xL inhibitor pelcitoclax, and the IAPs inhibitor dasminapant were evaluated both individually and in combination with standard of care and investigational anticancer small molecules within a complex spheroid model of solid tumors. . Complex spheroids include a stromal component modeled by human endothelial cells (HUVEC) and fibroblasts modeled by human mesenchymal stem cells (MSCs). The concentration ranges selected for each drug and investigational agent were based upon clinically achievable concentrations if the clinical Cmax of the agent was known.
Compounds. The drugs and investigational agents: alrizomadlin (APG-115; NSC831270), pelcitoclax (APG-1252; NSC835773), dasminapant (APG-1387;NSC834197), TAK-243 (NSC785004), copanlisib (NSC809693), olaparib (NSC753686), talazoparib (NSC767125), cobimetinib (NSC 768068), eltanexor (KPT-8602, NSC 794443), abemaciclib (NSC 768073), sotorasib (NSC818433), adagrasib (NSC 831453), MRTX-1133 (NSC 836407), Iadademestat (ORY1001, NSC 806812), and RMC-4630 (NSC839698), were obtained from the NCI Developmental Therapeutics Program Chemical Repository. The FDA-approved anticancer drug set is available from the Developmental Therapeutics Program at https://dtp.cancer.gov/organization/dscb/obtaining/available plates.htm. […] The stock solutions were prepared in dimethyl sulfoxide (DMSO, Sigma-Aldrich, St. Louis, MO, cat. D2650) at 800-fold the tested concentration and stored at -70 degrees C prior to their use. All drugs and investigational agents were tested over a range starting from a high concentration at or near the clinical Cmax and decreasing in half-log increments. If the clinical Cmax for an agent had not been determined, the highest concentration tested was 10 microM.
The patient-derived cancer (PDC) cell lines include five colon adenocarcinomas: 186277-243-T-J2-PDC, 616215-338-R-J1-PDC, 439559-082-T-J2-PDC, 463943-066-T-J2-PDC, and 519858-162-T-J1-PDC; three pancreatic carcinomas: 323965-272-R-J2-PDC, 521955-158-R6-J3-PDC, and 521955-158-R2-J5-PDC; two uterine sarcomas: 327498-152-R-J2-PDC and 993429-296-R-J1-PDC; two rhabdomyosarcomas: 755483-174-R-J1-PDC and 772245-204-R-J1-PDC; two soft tissue sarcomas: 126254-015-R-J1-PDC and 494315-158-R-J1-PDC; two malignant fibrous histiocytomas: 317291-083-R-J1-PDC and 596521-263-R-J1-PDC; two breast carcinomas: 171881-019-R-J1-PDC and 885512-296-R-J2-PDC; and one ovarian carcinoma: 6556581-035-R-J-PDC were obtained from the NCI PDMR, (https://pdmr.cancer.gov). The established cell lines HSSY-2 synovial sarcoma (RRID:CVCL 8719), SYO-1 synovial sarcoma (RRID:CVCL_7146), MPNST malignant peripheral neural sheath tumor were obtained from the Sloan Kettering Institute. The following established cell lines were purchased from the American Type Culture Collection (ATCC, Manassas, VA), Sor the received from the NCI repository:, PANC-1 pancreatic carcinoma (CRL-1469, RRID:CVCL_0480), OVCAR-5 ovarian carcinoma (RRID:CVCL_1628), OVCAR-8 ovarian carcinoma (RRID:CVCL_1629), , MCF-7 breast carcinoma (CRL-12584, RRID:CVCL_0031), MDA-MB-231 breast carcinoma (CRL-12532, RRID:CVCL_0062), NCI-H1876 small cell lung carcinoma (CRL-5902, RRID:CVCL_1503), NCI-H510A small cell lung carcinoma (HTB-184, RRID:CVCL_1565), NCI-H1417 (CRL-5869, RRID:CVCL_1469), and NCI-H196 small cell lung carcinoma (CRL-5823, RRID:CVCL_1509). Dr. Peter Houghton (Greehey Children's Cancer Research Institute, University of Texas Health Science Center, San Antonio, TX) provided Rh-18 rhabdomyosarcoma (RRID:CVCL_1659). Pooled donor human umbilical vein endothelial cells (HUVEC, Lonza, cat. CC-2519) and human mesenchymal stem cells (hMSC, Lonza, cat. PT-2501) were purchased from Lonza (Walkersville, MD).
Cell Culture. […]
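Further: compound exposure lasted 7 days.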
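Wherever viability, T/C is given: 100% = DMSO vehicle control wells.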

SMILES: C#Cc1c(F)ccc2cc(O)cc(-c3ncc4c(N5CC6CCC(C5)N6)nc(OCC56CCCN5CC(F)C6)nc4c3F)c12 (stereo unspecified)
viability, T/C (compound 0.0316 µM): 103% and 101% and 90.9% | viability, T/C (compound 0.1 µM): 88.8% and 94.5% and 88.5% | viability, T/C (compound 0.316 µM): 100% and 104% and 103% | viability, T/C (compound 1 µM): 109% and 104% and 115% | viability, T/C (compound 3.16 µM): 105% and 100% (2×) | viability, T/C (compound 10 µM): 96.9% and 95.9% and 104% | IC50 (curve of compound): > 10 µM

SMILES: C=C(F)C(=O)N1CCN(c2nc(OCC3CCCN3C)nc3c2CCN(c2cccc4cccc(Cl)c24)C3)CC1CC#N (stereo unspecified)
viability, T/C (compound 0.0316 µM): 98.4% and 102% | viability, T/C (compound 0.1 µM): 102% and 94.9% | viability, T/C (compound 0.316 µM): 102% | viability, T/C (compound 1 µM): 109% and 106% | viability, T/C (compound 3.16 µM): 95.6% | viability, T/C (compound 10 µM): 18.6% and 29.3% | IC50 (curve of compound): 6.27 µM and 7 µM

SMILES: C=CC(=O)N1CCN(c2nc(=O)n(-c3c(C)ccnc3C(C)C)c3nc(-c4c(O)cccc4F)c(F)cc23)C(C)C1 (stereo unspecified)
viability, T/C (compound 0.0316 µM): 102% and 108% | viability, T/C (compound 0.1 µM): 90.1% and 88.6% | viability, T/C (compound 0.316 µM): 93% and 101% | viability, T/C (compound 1 µM): 100% and 110% | viability, T/C (compound 3.16 µM): 102% and 104% | viability, T/C (compound 10 µM): 93.7% and 107% | IC50 (curve of compound): > 10 µM

SMILES: CCN1C(C(=O)NC23CCC(C(=O)O)(CC2)CC3)C(c2cccc(Cl)c2F)C2(C(=O)Nc3cc(Cl)ccc32)C12CCCCC2 (stereo unspecified)
viability, T/C (compound 0.00949 µM): 98.6% [middle of 8 runs] | viability, T/C (compound 0.03 µM): 96.1% [middle of 8 runs] | viability, T/C (compound 0.0949 µM): 88.7% [middle of 8 runs] | viability, T/C (compound 0.3 µM): 82.9% [middle of 8 runs] | viability, T/C (compound 0.949 µM): 76.8% [middle of 8 runs] | viability, T/C (compound 3 µM): 77.5% [middle of 8 runs] | IC50 (compound alone, run of 11/07/2022): > 3 µM | IC50 (curve of compound): > 3 µM

SMILES: COc1c(OCCCN2CCOCC2)ccc2c3n(c(=NC(=O)c4cnc(N)nc4)nc12)CCN3
viability, T/C (compound 0.00316 µM): 94.5% and 96.1% | viability, T/C (compound 0.01 µM): 90.6% and 82% | viability, T/C (compound 0.0316 µM): 77.9% and 77.5% | viability, T/C (compound 0.1 µM): 65.9% and 65.1% | viability, T/C (compound 0.316 µM): 59% and 58.9% | viability, T/C (compound 1 µM): 41.5% and 44.9% | IC50 (curve of compound): 0.524 µM and 0.659 µM

The next lines start with results.

IC50 (curve of compound): > 1 µM
SMILES: CCN1CCN(Cc2ccc(Nc3ncc(F)c(-c4cc(F)c5nc(C)n(C(C)C)c5c4)n3)nc2)CC1
viability, T/C (compound 0.00316 µM): 102% and 101% and 107% | viability, T/C (compound 0.01 µM): 99.4% and 93.9% and 78.5% | viability, T/C (compound 0.0316 µM): 100% and 108% and 97.6% | viability, T/C (compound 0.1 µM): 98.9% and 96% and 104% | viability, T/C (compound 0.316 µM): 113% and 108% and 115% | viability, T/C (compound 1 µM): 119% and 120% and 125%

IC50 (compound alone, run of 11/15/2022): > 1 µM | IC50 (curve of compound): > 1 µM
SMILES: CNC(C)C(=O)NC1CN(S(=O)(=O)c2cccc(S(=O)(=O)N3CCC4CCC(C(=O)NC(c5ccccc5)c5ccccc5)N4C(=O)C(NC(=O)C(C)NC)C3)c2)CCC2CCC(C(=O)NC(c3ccccc3)c3ccccc3)N2C1=O (stereo unspecified)
viability, T/C (compound 0.00316 µM): 99.1% [middle of 6 runs] | viability, T/C (compound 0.01 µM): 94.9% [middle of 6 runs] | viability, T/C (compound 0.0316 µM): 100% [middle of 6 runs] | viability, T/C (compound 0.1 µM): 99.2% [middle of 6 runs] | viability, T/C (compound 0.316 µM): 96.8% [middle of 6 runs] | viability, T/C (compound 1 µM): 92.2% [middle of 6 runs]
